Earlier results as cited in patent publication US7445902B2, “Fluorescent nucleotide analogues” (GE Healthcare UK Limited, priority 2004, dated 2008).

System: receptor-Gαs/Gαi fusion proteins
Conditions: binding to receptor-Gαs/Gαi fusion proteins in the expression systems employed

fold lower affinity than GppNHp (relative to GppNHp) | fold lower affinity than GTPγS (relative to GTPγS) | Substance
17-55 fold |  | BODIPY-FL-guanosine 5′-[β,γ-imido]triphosphate [B-GppNHp]
 | 1,100-5,600 fold | BODIPY-FL-guanosine 5′-[γ-thio]triphosphate [B-GTPγS]
